Active and inactive are the calls of the source. How the calls were made is not given here.

The assay concerns L. donovani-infected THP-1 macrophages, intracellular amastigote imaging. The experiment in a line: intracellular L. donovani amastigote inhibition, imaging, THP-1 host macrophages, host toxicity (AID 1159564).
Where [1] appears, read: measured here: THP-1 host cell toxicity.
Where [2] appears, read: measured here: amastigotes per macrophage.

The term IC50 denotes the concentration that inhibits the measured activity by half. With `Cc1nn(C2CCS(=O)(=O)C2)c(C)c1CN(C)C(=O)C=Cc1sc2ccccc2c1Cl` (centres undefined), the IC50 is 40 µM. Under setting [1], this compound had an IC50 of 20 µM. For the same compound, the IC50 under setting [2] was 13 µM.
The like results for `Fc1ccc(OC2CC(NCc3cccc4cn[nH]c34)C2)cc1C(F)(F)F` (centres undefined) were, in that order, 7.9 µM, 10 µM and 7.9 µM.
The like results for `NS(=O)(=O)c1ccc(Nc2ncc3cccc(OC4CCNCC4)c3n2)cc1` were, in that order, 20 µM, 1 µM and 16 µM.
Take `Cc1[nH]nc2c1C(c1ccc(OCc3ccccc3F)cc1)SCC(=O)N2` (centres undefined): the IC50 is > 50 µM (inactive). The IC50 under setting [1] is over 50 µM. This compound showed an IC50 under setting [2] of over 50 µM.
On to `CC(C)c1sc(Cl)nc1C(=O)NCCc1nc(C(=O)Nc2ccc3c(c2)OCO3)cs1`, for which the IC50 is 5 µM. This compound displayed an IC50 under setting [1] of over 50 µM. Under setting [2], this compound showed a half-inhibitory concentration (IC50) of 2.5 µM.
`Oc1c(-c2n[nH]c(Cc3ccc(Cl)cc3)n2)ncc2cccnc12`: the IC50 was 1.3 µM. In addition, the IC50 under setting [1] worked out at 20 µM. In addition, the IC50 under setting [2] amounted to 1 µM.
`Cc1ccc2onc(Nc3ccnc(Nc4cccc(S(C)(=O)=O)c4)n3)c2c1`: the IC50 was 2 µM. The IC50 under setting [1] was 20 µM. Further, the IC50 under setting [2] came to 1 µM.
For `CC(=O)Nc1ccc(-c2csc(NC(=O)c3ccc([N+](=O)[O-])s3)n2)cc1`, in that order: 1 µM, 13 µM and 0.79 µM.
The like results for `O=C(Nc1nc(-c2ccccn2)cs1)C1CCc2ccccc2C1` (centres undefined) were, in that order, 0.63 µM, 7.9 µM and 0.4 µM.
On to `CCc1c(C)nc(-n2nc(C)cc2NC(=O)COc2ccccc2F)[nH]c1=O`, for which the 50% inhibitory concentration (IC50) is 7.9 µM. For the same compound, under setting [1], the IC50 was determined as 4 µM. Under setting [2], this compound registered an IC50 of 5 µM.
The like results for `OC1CCC(Nc2nccc(-c3sc(C4CCOCC4)nc3-c3ccc(F)c(F)c3)n2)CC1` (centres undefined) were, in that order, 5 µM, 20 µM and 2.5 µM.
For `CCCN(Cc1ccc(OC)c(OC)c1)Cc1cc(=O)c2c(C)cc(C)cc2[nH]1`, in that order: 25 µM, 5 µM and 20 µM.
For `CC(C)S(=O)(=O)c1ccc(-c2cnc(N)c3cc(-c4ccnc(N)n4)ccc23)cc1`, in that order: 1.3 µM, 2.5 µM and 0.5 µM.
For `Cc1ccc(C)c(CN2C(=O)NC3(CCc4ccccc43)C2=O)c1` (centres undefined), the IC50 is > 50 µM (inactive). Also, under setting [1], the IC50 was over 50 µM. This compound gave an IC50 under setting [2] of 16 µM.
For `Cc1ccc(C)c(OC2CCN(C(=O)C(C)n3ccnc3)CC2)c1` (centres undefined), in that order: > 50 µM (inactive), over 50 µM and 0.32 µM.
In the case of `COc1ccc(-c2cc(C)no2)cc1S(=O)(=O)Nc1ccc(F)c(Cl)c1`, the IC50 is 25 µM. Also, the IC50 under setting [1] came to 32 µM. Under setting [2], this compound yielded an IC50 of 20 µM.
In the case of `CC(Cn1ccnc1)NC(=O)COc1ccc(Cl)c(Cl)c1` (centres undefined), the IC50 is > 50 µM (inactive). Under setting [1], the IC50 was over 50 µM. The compound also yielded a half-maximal inhibitory concentration (IC50) under setting [2] of over 50 µM.
Consider `COc1ccc(Nc2nc(-c3ccccn3)cc(N3CCCC(O)C3)n2)cc1` (centres undefined), for which the IC50 was 1 µM. The same compound displayed an IC50 under setting [1] of 25 µM. Under setting [2], the concentration for half-maximal inhibition (IC50) was determined as 0.79 µM.
The like results for `OC[C@@H](Nc1nccc(-c2c(-c3ccc(F)cc3)ncn2C2CCNCC2)n1)c1ccccc1` were, in that order, 32 µM, 32 µM and 32 µM.
For `O=C(Nc1ccc(C(F)(F)F)cc1)Nc1cccc([N+](=O)[O-])c1`, in that order: 2.5 µM, 6.3 µM and 2 µM.
The like results for `O=C(NCC1CCCCN1C(=O)c1cccc2ccccc12)c1ccccc1` (centres undefined) were, in that order, > 50 µM (inactive), over 50 µM and over 50 µM.
For the compound `C=CCOCC1Cn2nc([N+](=O)[O-])nc2O1` (centres undefined), the IC50 was > 50 µM (inactive). The half-inhibitory concentration (IC50) under setting [1] was over 50 µM. For the same compound, the IC50 under setting [2] is over 50 µM.
On to `Cc1nc(-c2nc(NCc3ccc(Cl)cc3)c3cccnc3c2O)n[nH]1`, for which the half-maximal inhibitory concentration (IC50) is 0.5 µM. Besides, the IC50 under setting [1] came out at 6.3 µM. The IC50 under setting [2] is 0.5 µM.
Turning to `Cc1ccc(NC(=O)c2ccc([N+](=O)[O-])s2)cc1S(=O)(=O)N1CCOCC1`, the IC50 is 3.2 µM. This compound also yielded an IC50 under setting [1] of 40 µM. This compound also registered an IC50 under setting [2] of 2 µM.
On to `CN(CC1CCCO1)S(=O)(=O)c1ccc(C(=O)Nc2nc(-c3ccccn3)cs2)cc1` (centres undefined), for which the IC50 is 6.3 µM. The same compound gave an IC50 under setting [1] of 7.9 µM. The half-inhibitory concentration (IC50) under setting [2] was found to be 3.2 µM.
For `NC(=O)c1ccsc1NC(=O)c1ccc([N+](=O)[O-])s1`, in that order: 1.6 µM, 13 µM and 1.3 µM.
For `COc1cc(C(C)C)c(S(C)(=O)=O)cc1C(=O)N1CCN(c2ccccc2Cl)CC1`, in that order: 16 µM, 16 µM and 13 µM.
Consider `CCN(CC)c1nc(Nc2ccncc2)nc2ccccc12`, for which the IC50 was 6.3 µM. Under setting [1], this compound displayed a half-inhibitory concentration (IC50) of 25 µM. Also, under setting [2], the IC50 was 2 µM.

(Values after PubChem BioAssay AID1159564 (GlaxoSmithKline (GSK), 2015).)
